# Reference: patent US8497083B2, “Fructosyl amino acid oxidase” (priority 2009, dated 2013)
# Substitutions are numbered along the chain they refer to.
# Experiments:
# [1] = molecular target: T1, fructosyl amino acid oxidase from Pichia sp. N1-1 (N1-1 FAOD), wild type, SEQ ID NO: 2 (Pichia sp. N1-1, UniProt Q3L8U0); experiment: Dehydrogenase activity kinetics (mPMS/DCIP), N1-1 FAOD wild type; type: biochemical; details: mPMS/DCIP over 4AA/TODB/POD
# T1 construct: 427 aa
# T1 sequence (Q3L8U0 1-427): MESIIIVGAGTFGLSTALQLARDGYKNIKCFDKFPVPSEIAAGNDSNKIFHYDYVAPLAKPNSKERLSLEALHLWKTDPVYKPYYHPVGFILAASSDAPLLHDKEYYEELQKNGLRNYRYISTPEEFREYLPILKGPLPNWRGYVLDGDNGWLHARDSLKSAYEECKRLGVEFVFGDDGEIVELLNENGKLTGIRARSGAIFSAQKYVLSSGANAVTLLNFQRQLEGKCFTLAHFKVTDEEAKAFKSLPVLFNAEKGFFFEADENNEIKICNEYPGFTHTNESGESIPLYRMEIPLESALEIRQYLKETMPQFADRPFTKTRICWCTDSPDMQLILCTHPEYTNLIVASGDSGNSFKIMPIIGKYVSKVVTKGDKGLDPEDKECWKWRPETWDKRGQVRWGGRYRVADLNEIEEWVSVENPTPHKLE
# Text: (§1) As used herein, “dehydrogenase activity” is an enzymatic activity (Vmax) of the fructosyl amino acid oxidase to catalyze oxidation of fructosyl amino acid to generate 2-keto-D-glucose and the corresponding amino acid while utilizing an electron mediator other than oxygen as an electron acceptor. The dehydrogenase activity may be assayed by measuring the amount of electrons transferred to the mediator using, for example, one of mPMS/DCIP (1-methoxy-5-methylphenazinium methylsulfate/2,6-dichloroindophenol), cPES (trifluoro-acetate-1-(3-carboxy-propoxy)-5-ethyl-phenanzinium, NA BM31—1144 (N,N-bis-(hydroxyethyl)-3-methoxynitrosoaniline hydrochloride, NA BM31—1008 (N,N-bis-hydroxyethyl-4-nitrosoaniline) and N—N-4-dimethyl-nitrosoaniline.
# (§2) As used herein in the context of the relative or quantitative activity, the dehydrogenase activity is specifically defined to be the mole amount of the substrate (fructosyl amino acid) oxidized per unit time measured by the amount of electrons transferred to the mediator at 25° C. in 10 mM PPB (pH 7.0), 0.6 mM DCIP, and 6 mM methoxy PMS (mPMS).
# (§3) Escherichia coli BL21 (DE3) cells harboring expression vectors of N1-1 FAOD (SEQ ID NO: 2) mutants were grown in 150 ml of LB medium containing 50 μg/ml kanamycin at 37° C. […] The formation of quinoneimine dye was measured spectrophotometrically at 546 nm. […]
# [2] = molecular target: T2, fructosyl amino acid oxidase from Pichia sp. N1-1 (N1-1 FAOD, SEQ ID NO: 2) variant N47A (Pichia sp. N1-1, UniProt Q3L8U0, N47A); experiment: Dehydrogenase activity kinetics (mPMS/DCIP), N1-1 FAOD N47A mutant; type: biochemical; details: mPMS/DCIP over 4AA/TODB/POD
# T2 construct: crude and purified
# T2 sequence (Q3L8U0 1-427 N47A): T1 sequence (Q3L8U0 1-427) with N47A
# Text: as §1, §2, §3
compound,measurement,setting,value
"CC(C)[C@H](NCC1(O)OC[C@@H](O)[C@@H](O)[C@@H]1O)C(=O)O (stereo partly shown) [f-αVal, fructosyl valine]",B/A (Vmax dehydrogenase/Vmax oxidase),[1]; crude preparation,1.2
same,B/A (Vmax dehydrogenase/Vmax oxidase),[1]; purified enzyme,1.1
same,B/A (Vmax dehydrogenase/Vmax oxidase),[2]; crude preparation,7.5
same,B/A (Vmax dehydrogenase/Vmax oxidase),[2]; purified enzyme,4.3
